According to ChEMBL document CHEMBL3507680, “University of Dundee, Gates Library screen for HepG2 cell viability”:

Assay: Human HepG2 cell viability assay in 384 well format
Type: toxicity, cell-based
Design: dose 125 nL, time 70.5 hour; concentration not given beside the values
Conditions: HepG2 cells, read-out: Inhibition

SMILES | cytotoxicity at 70.5 h [%]
CCOC(=O)c1ccc(S(=O)(=O)NCc2cccnc2N(C)C)cc1 | 34.2
COc1c(C)cnc(CN2CCCC(Cn3nc(C)nc3C)C2)c1C (stereo not drawn) | -3.59
c1ncn(CC2CN(Cc3ccc4c(c3)OCCO4)CCO2)n1 (stereo not drawn) | -0.441
CCN(Cc1ccccc1)C(=O)CN1CCOC(Cn2cncn2)C1 (stereo not drawn) | 5.38
CS(=O)(=O)NCCCN1CCCC1c1ccsc1 (stereo not drawn) | -9.71
Cc1cnn(CC(=O)N2CCCN(c3nc(C)cs3)CC2)c1 | 0.581
O=C(CN1CCCCC1Cn1cncn1)NCCc1ccsc1 (stereo not drawn) | 9.35
CCC(C)NC(=O)CS(=O)(=O)Cc1cc(Cl)c2c(c1)OCCCO2 (stereo not drawn) | -5.29
NC(=O)CS(=O)(=O)Cc1cc(Cl)c2c(c1)OCCCO2 | 13.8
COc1ccc(S(=O)(=O)NCc2cccnc2N(C)C)cc1 | -5
CNC(=O)CS(=O)(=O)Cc1cc(Cl)c2c(c1)OCCO2 | -4.61
CN(Cc1ccsc1)C(=O)Nc1ccc(N2CCCC2)nc1 | 0.563
O=C(CN1CCC(c2ccnn2CCO)CC1)NCc1ccco1 | 11.2
CNC(=O)c1ccc(S(=O)(=O)NCc2cccnc2N(C)C)cc1 | -6.39
Cc1csc(N2CCN(C(=O)CCn3cccn3)CC2)n1 | 3.65
Cc1cnn(CCC(=O)N2CCN(c3nccs3)CC2)c1 | 17.7
CN(Cc1ccsc1)C(=O)Nc1ccc(N(C)C)nc1 | -2.83
CCOc1ccnc(N2CCN(C(=O)c3c(CC)noc3C)CC2)n1 | -7.39
CCOc1ccnc(N2CCN(C(=O)c3cn[nH]c3C)CC2)n1 | 13.7
CC(C)c1nc(CN2CCCC2c2cnn(C)c2)cs1 (stereo not drawn) | -2.88
CC(=O)N(C)c1nc(CN2CCCC2c2cnn(C)c2)cs1 (stereo not drawn) | 1
c1ccc(-n2ccc(CN3CCOC(Cn4cncn4)C3)n2)cc1 (stereo not drawn) | -8.56
c1ccc(-c2ccc(CN3CCOC(Cn4cncn4)C3)cc2)cc1 (stereo not drawn) | 22
Cn1cc(C2CCCN2Cc2csc(C3CCCC3)n2)cn1 (stereo not drawn) | 0.499

SMILES | cytotoxicity at 70.5 h [%]
Cc1cnn(CC2CN(Cc3ccc(-n4cccn4)cc3)CCO2)c1 (stereo not drawn) | -0.9
Cn1cc(-c2nc(CN3CCCCC3Cn3cncn3)cs2)cn1 (stereo not drawn) | 19.3
CS(=O)(=O)NCCN1CCCC1c1noc(C2CC2)n1 (stereo not drawn) | 19.5
Cc1n[nH]c(C2CN(Cc3nnc(C4CCC4)o3)CCO2)n1 (stereo not drawn) | -1.02
CCc1nnc(CN2CCOC(Cn3cccn3)C2)o1 (stereo not drawn) | -8.14
c1ccc(Cc2nc(CN3CCCC3Cn3cncn3)cs2)cc1 (stereo not drawn) | -7.1
Cc1cnn(CC2CCCCN2Cc2nnsc2Cl)c1 (stereo not drawn) | -7.35
CS(=O)(=O)c1ccc(CNC(=O)N2CCC(C(N)=O)CC2)cc1 | -2.35
CCOc1ncccc1NC(=O)NCC(O)c1ccc(OC)cc1 (stereo not drawn) | 19.2
CC(NC(=O)NCCCc1n[nH]c(N)c1C#N)c1ccc(Cl)cc1 (stereo not drawn) | -0.0754
COc1cc(C(=O)Nc2nc(C)no2)ccc1OC(F)F | 2.82
CCOCc1ccc(CNC(=O)N2CCC(C(N)=O)C2)cc1 (stereo not drawn) | -2.39
c1ccc(-c2nnc(CN3CCOC(Cn4cccn4)C3)o2)cc1 (stereo not drawn) | -6.72
Cc1nn(C)c(N2CCOCC2)c1CN[C@@H]1c2ccccc2C[C@@H]1O | -0.734
CS(=O)(=O)Cc1ccc(CNC(=O)N2CCC(C(N)=O)C2)cc1 (stereo not drawn) | -1.33
Cc1ccc(-c2nnc(CN3CCOC(Cn4cncn4)C3)o2)cc1 (stereo not drawn) | -5.3
COc1ccc(C)cc1C(=O)N1CCCC(n2nc(C)nc2C)C1 (stereo not drawn) | -8.26
CS(=O)(=O)c1ccc(CNC(=O)N2CCC(CO)CC2)cc1 | -2.86
Clc1ccc(-c2nnc(CNCCn3cccn3)o2)c(Cl)c1 | -6.39
Cc1nc(C)n(CC2CCCN2CCOc2ccccc2F)n1 (stereo not drawn) | -3.47
CCc1nc(CN(C(C)=O)C2CCN(CCc3ccccc3)C2)no1 (stereo not drawn) | -5
O=C(NCCOc1ccc2c(c1)OCO2)C1CC(=O)N(CC2CC2)C1 (stereo not drawn) | 1.74
CNS(=O)(=O)c1ccc(C(=O)N2CCCC2Cc2ccccc2)o1 (stereo not drawn) | 1.08
O=C(NCCOc1cccc(Cl)c1)C1CC(=O)N(CC2CC2)C1 (stereo not drawn) | 40.6

SMILES | cytotoxicity at 70.5 h [%]
CC(NC(=O)NCC1(N2CCCCC2)CCCCC1)c1nncn1C (stereo not drawn) | -20.6
CN(C)S(=O)(=O)c1ccc(CN2CCCC2c2ccccc2)o1 (stereo not drawn) | 32.6
CCc1ccc(S(=O)(=O)Nc2cc(OC)c(OC)cc2C(=O)O)s1 | 4.71
CC(NC(=O)NCC1(c2ccccc2)CCC1)c1nncn1C (stereo not drawn) | -16.7
O=C(COC(=O)Cc1cccs1)NCc1cccc(NC(=O)C2CC2)c1 | -10.5
CCn1cc(NC(=O)C2CCN(CCOC(C)C)CC2)cn1 | -1.36
CNS(=O)(=O)c1ccc(C(=O)N2CCCC2c2ccccc2)o1 (stereo not drawn) | -14.1
O=C(c1csc(-c2cccs2)n1)N1CCCC1Cn1cccn1 (stereo not drawn) | -18.2
Cc1cc(NC(=O)CN(C)C2CCCN(c3cccnn3)C2)n(C)n1 (stereo not drawn) | -4.81
c1ncn(CC2CN(Cc3csc(C4CCCC4)n3)CCO2)n1 (stereo not drawn) | -7.39
c1csc(-c2nc(CN3CCOC(Cn4cncn4)C3)cs2)c1 (stereo not drawn) | -26.8
COCCNC(=O)NCc1ccc(OC(C)C)c(F)c1 | -10.4
Cc1cn2c(n1)CCC(NC(=O)CCn1ccnn1)C2 (stereo not drawn) | -8.67
CCOc1cc(C(=O)N2CCCC(c3noc(C)n3)C2)ccn1 (stereo not drawn) | -12.6
CN(C)CC1CN(c2ccc(C#N)cn2)CCO1 (stereo not drawn) | -10.1
CCN1CCOC(CNCc2ccccn2)C1 (stereo not drawn) | -7.88
CN(C)S(=O)(=O)c1ccc(CN2CCCC2c2ccc[nH]2)o1 (stereo not drawn) | -5.46
CCCc1n[nH]c(C2CN(C(=O)C3=COCCC3)CCO2)n1 (stereo not drawn) | -16.3
CCc1nc2n(n1)CC(NCc1ccnc(-c3ccccc3)n1)CC2 (stereo not drawn) | -10
Cc1cccc(OCCNC(=O)CN2CCCC2Cn2cccn2)c1 (stereo not drawn) | -15.8
CNS(=O)(=O)c1ccc(C(=O)N2CCCC2c2cnn(C)c2)o1 (stereo not drawn) | 23
CNC(=O)CCCNCc1c(C(C)C)nn(C)c1N(C)C | 14.4
CC(C)c1nc(C2CCCN2C(=O)c2ccc(N(C)C)nn2)no1 (stereo not drawn) | 7.67
CN(CCc1ccccn1)S(=O)(=O)N1CCCC1c1ccco1 (stereo not drawn) | -10.8

SMILES | cytotoxicity at 70.5 h [%]
COc1cccc(CCNC(=O)CN2CCN(C)CC2C)c1 (stereo not drawn) | -17.1
CC(NC(=O)NCCCO)c1ccc2c(c1)OCCO2 (stereo not drawn) | -10.1
CN(Cc1ccsc1)C(=O)c1cc2c([nH]c1=O)CCCC2=O | -12.8
CN1CCC(NC(=O)NCCNc2ccccn2)CC1 | -13.1
CC(N(C)Cc1nc2c(cnn2C)c(=O)[nH]1)C(C)(C)C (stereo not drawn) | 21
COCCCNC(=O)CN(C)C(=O)c1cc(C)sc1C | -14
CN(CC(=O)N1CCN(c2ccccc2F)CC1)c1cnccn1 | -18.2
CS(=O)(=O)NC1CCN(C(=O)NCCc2ccccc2F)CC1 | -5.64
COc1ccccc1OCCN1CCC(N2CCNC2=O)CC1 | 19.7
Cn1ccnc1CN1CCN(Cc2cc(C#N)ccc2F)CC1 | -11.4
COc1cccc(OCCNC(=O)CN2CCN(C)CC2C)c1 (stereo not drawn) | -13.4
Cc1cnn(CCNCc2ccccc2C#N)c1 | 13.2
CC(NC(N)=O)C(=O)N(C)CCCc1cc(-c2ccccc2)no1 (stereo not drawn) | -21.7
CC(C)c1nc(C2CCCN2C(=O)c2nccnc2N)no1 (stereo not drawn) | -7.76
CN(C)C(CNC(=O)c1cc2c([nH]c1=O)CCCC2=O)c1ccsc1 (stereo not drawn) | -2.41
CCOc1ncccc1NC(=O)N1CCCCCC1 | -13.8
CC(c1nc(C2CC2)no1)N1CCN(CCOCC(F)(F)F)CC1 (stereo not drawn) | -8.3
Cc1csc(N2CCN(CC(=O)Nc3nncs3)CC2C)n1 (stereo not drawn) | -10
O=C(c1cnccn1)N1CCN(Cc2csc(-c3ccccc3)n2)CC1 | 10.5
CN(CCn1cccn1)S(=O)(=O)N1CCCC1c1ccco1 (stereo not drawn) | -17
CCOc1ncccc1NC(=O)N1CCc2ccccc2C1 | -12
Cc1noc(C)c1C(=O)NCC(C)N(C)C (stereo not drawn) | 4.18
CC(=O)N1CCC(CN2CCN(Cc3nccn3C)C(C)C2)CC1 (stereo not drawn) | 2.21
COc1ccc(C)cc1CN1CCCC1c1noc(C2CC2)n1 (stereo not drawn) | -1.93

SMILES | cytotoxicity at 70.5 h [%]
O=C(CCn1cccn1)N1CCN(CC(F)F)CC1 | -1.77
CC(=O)N(Cc1ncc(C(C)C)o1)C1CCN(Cc2ncc[nH]2)C1 (stereo not drawn) | 0.135
CCC(=O)N1CCN(C(=O)CCn2cccn2)CC1 | -7.9
c1ccc2sc(CN3CCCC3c3noc(C4CC4)n3)nc2c1 (stereo not drawn) | 4.52
c1ccc2c(N3CCCC3Cn3cccn3)ncnc2c1 (stereo not drawn) | 4.1
Cc1ccsc1C(=O)NCCCn1nc2ccccn2c1=O | -4.38
CNC(=O)C1CCN(C(=O)c2ccn(-c3ccc(F)cc3)n2)CC1 | -15
CC(=O)NCCNC(=O)c1sc(-c2ccc(C)cc2C)nc1C | 0.801
Cc1nc(-c2ccc(Cl)s2)sc1C(=O)NCCS(N)(=O)=O | -13.2
CN(C)Cc1nc(C(C)(C)NC(=O)C2CC(=O)N(CC3CC3)C2)no1 (stereo not drawn) | 19.5
CCCc1nc(C(C)(C)NC(=O)C2CC(=O)N(CC3CC3)C2)no1 (stereo not drawn) | -6.06
CN1CCCN(C(=O)NCc2csc(Br)c2)CC1 | -6.63
CN(C)C1CCN(C(=O)c2ccc(Cn3ccccc3=O)o2)CC1 | 1.64
COc1c(CNC2CCCc3ccccc32)c(C(C)C)nn1C (stereo not drawn) | 9.34
Cc1ncc2c(n1)CN(Cc1nnc(-c3occc3C)o1)CC2 | 4.24
Cc1ccc(-c2nnc(CN3CCc4cnc(C)nc4C3)o2)cc1 | 3.5
CC1CN(CC(=O)Nc2nncs2)CCN1Cc1nccn1C (stereo not drawn) | -4.59
CCOc1cc(C)nc(N2CCN(C(=O)c3ccnn3C)CC2)n1 | -3.99
c1cnn(CC2CCCN2c2ncnc3sccc23)c1 (stereo not drawn) | 31.2
c1ccc(-c2noc(CNC3CCc4ncnn4C3)n2)nc1 (stereo not drawn) | -4.56
CC(C)c1nn(C)c(N(C)C)c1CNCCC(=O)N(C)C | -2.45
CC(C)c1nn(C)c(Cl)c1CNC1CCOc2ccccc21 (stereo not drawn) | -2.92
